Values of other authors in paper PMC12682717, “Radiolabelling and bioequivalence of modified Tamoxifen solid lipid nanoparticles as a targeted chemotherapeutic drug” (Drug Delivery and Translational Research, 2025).
Where a name gives a salt, the structure may show the parent alone.

Experiments:
[1] = parameters: method as in PMID 32151063, PMID 37906415; settings: patients
[2] = no reference given

CC/C(=C(\c1ccccc1)c1ccc(OCCN(C)C)cc1)c1ccccc1 [TAM, Tamoxifen citrate]
side effect: depression, irritability or vaginal dryness [1]: 35% | side effect: hot flashes [1]: 64% | side effect: mood swings [1]: 6% | side effect: sleep issues [1]: 36% | side effect: weight gain [1]: 6% | biopharmaceutical categorization system (BCS) class [2]: class II
